Test [1] can be described thus: MITF Orthogonal Assay: SK-MEL-5 CTG Assay Measured in Cell-Based System Using Plate Reader - 2084-02_Inhibitor_Dose_DryPowder_Activity_Set5. The class given is functional.
Test [2] is described as follows: cytotoxicity in melanoma parental cells – cell-based, CellTiter-Glo, dry powder, set 6, MITF inhibitor project, dose response (AID 624429). The format is functional. Conditions: SK-MEL-5. In general terms: ATP-based viability assays read luminescence as a measure of living cells.
A short description of test [3]: growth inhibition of MALME3 cells – cell-based, CellTiter-Glo luminescence, dry powder, set 5, orthogonal assay for MITF inhibitor project, dose response (AID 651584). The class given is functional. Conditions: MALME-3.
For a further test, the target named is Procathepsin L (Homo sapiens, UniProt P07711).
The target of test [4] is Bifunctional protein GlmU (Mycobacterium tuberculosis, UniProt P9WMN3). Kind of test: Inhibitors of Mycobacterial Glucosamine-1-phosphate acetyl transferase (GlmU). Secondary screen. The arrangement: species or system Mycobacterium tuberculosis H37Rv.
Sequence of Bifunctional protein GlmU (P9WMN3 whole entry): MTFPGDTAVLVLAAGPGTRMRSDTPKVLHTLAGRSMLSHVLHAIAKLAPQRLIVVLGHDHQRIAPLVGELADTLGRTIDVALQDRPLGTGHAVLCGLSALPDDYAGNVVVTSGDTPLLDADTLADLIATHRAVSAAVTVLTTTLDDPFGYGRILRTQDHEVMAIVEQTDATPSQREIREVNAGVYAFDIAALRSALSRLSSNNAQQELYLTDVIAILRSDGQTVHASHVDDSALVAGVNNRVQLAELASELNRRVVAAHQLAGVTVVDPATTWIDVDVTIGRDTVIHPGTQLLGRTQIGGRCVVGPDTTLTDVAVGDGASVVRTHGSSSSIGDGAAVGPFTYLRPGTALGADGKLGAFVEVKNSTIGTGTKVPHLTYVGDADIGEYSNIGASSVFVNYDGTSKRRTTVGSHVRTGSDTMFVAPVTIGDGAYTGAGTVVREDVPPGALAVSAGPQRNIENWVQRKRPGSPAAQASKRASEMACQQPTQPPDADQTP
The test system of a further test is CHO-K1. Put plainly: Counterscreen for antagonists of the orexin 1 receptor (OX1R; HCRTR1): Homogeneous time resolved fluorescence (HTRF)-based cell-based dose response assay to identify antagonists of the parental CHO-K1 cell line. [Related pubchem assays (depositor defined):AID434989, AID435008, AID463079, AID485270, AID492963, AID492964, AID492965, AID493232, AID504699, AID504701]. The class given is functional. The following applies: Cricetulus griseus.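 Further: potency for inhibition of ATP-stimulated IP1 production as antagonists.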

The target in the next test is Misshapen-like kinase 1 (Homo sapiens, UniProt Q8N4C8). The format is functional.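 Further: kinome panel screen with MINK as the panel member.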
The target of test [5] is MAP/microtubule affinity-regulating kinase 3 (Homo sapiens, UniProt P27448). The format is functional.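 Further: MARK3 affinity measured as one member of a kinome panel.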
The target of test [6] is RAC-alpha serine/threonine-protein kinase (Homo sapiens, UniProt P31749). The format is functional.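 Further: AKT1 affinity measured as one member of a kinome-wide kinase profiling panel.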
The target of test [7] is Serine/threonine-protein kinase pim-3 (Homo sapiens, UniProt Q86V86). The class given is functional.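 Further: value obtained as one member of a broad kinase panel profiling effort.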
Test [8] addresses Serine/threonine-protein kinase BRSK1 (Homo sapiens, UniProt Q8TDC3). The class given is functional.
The target of test [9] is Calcium/calmodulin-dependent protein kinase type II subunit delta (Homo sapiens, UniProt Q13557). The class given is functional.
Test [10] addresses Casein kinase II subunit alpha (Homo sapiens, UniProt P68400). The class given is functional.
The target in test [11] is Vascular endothelial growth factor receptor 1 (Homo sapiens, UniProt P17948). The format is functional.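 Further: measured within a kinome-wide profiling panel, FLT1 as the panel member.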
Test [12] has as its target Tyrosine-protein kinase Fer (Homo sapiens, UniProt P16591). The class given is functional.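 Further: FER tested as one member of a kinome panel.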
For the next test, the target named is Aurora kinase A (Homo sapiens, UniProt O14965). The class given is functional.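 Further: value from the Navigating the Kinome kinase panel profiling, panel entry STK6.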
Test [13] has as its target Macrophage colony-stimulating factor 1 receptor (Homo sapiens, UniProt P07333). The format is functional.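 Further: value comes from the Navigating the Kinome screening panel, CSF1R member.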
The target of test [14] is Cyclin-dependent kinase 1 (Homo sapiens, UniProt P06493). The format is functional.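 Further: Kinome-wide panel profiling, with the target listed as panel member CDC2.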
Sequence of Cyclin-dependent kinase 1 (P06493 whole entry): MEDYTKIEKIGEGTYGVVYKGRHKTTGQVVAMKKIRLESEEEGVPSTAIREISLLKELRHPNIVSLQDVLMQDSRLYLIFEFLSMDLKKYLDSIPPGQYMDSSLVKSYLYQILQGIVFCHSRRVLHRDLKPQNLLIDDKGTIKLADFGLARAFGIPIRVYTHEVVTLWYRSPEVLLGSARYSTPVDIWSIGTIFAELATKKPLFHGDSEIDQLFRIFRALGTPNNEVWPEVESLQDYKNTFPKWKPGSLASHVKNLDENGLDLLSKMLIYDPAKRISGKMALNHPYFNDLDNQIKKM
Test [15] has as its target Tyrosine-protein kinase Blk (Homo sapiens, UniProt P51451). The class given is functional.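 Further: obtained as one member of a kinome-wide kinase assay panel.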
Test [16] has as its target Serine/threonine-protein kinase Chk1 (Homo sapiens, UniProt O14757). The class given is functional.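 Further: measured as one member of a kinome-wide kinase profiling panel.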
Test [17] concerns the target Serine/threonine-protein kinase PLK1 (Homo sapiens, UniProt P53350). The class given is functional.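 Further: PLK1 measured as one member of a kinome-wide profiling panel.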
Test [18] deals with Tyrosine-protein kinase Lck (Homo sapiens, UniProt P06239). The class given is functional.
Sequence of Tyrosine-protein kinase Lck (P06239 whole entry): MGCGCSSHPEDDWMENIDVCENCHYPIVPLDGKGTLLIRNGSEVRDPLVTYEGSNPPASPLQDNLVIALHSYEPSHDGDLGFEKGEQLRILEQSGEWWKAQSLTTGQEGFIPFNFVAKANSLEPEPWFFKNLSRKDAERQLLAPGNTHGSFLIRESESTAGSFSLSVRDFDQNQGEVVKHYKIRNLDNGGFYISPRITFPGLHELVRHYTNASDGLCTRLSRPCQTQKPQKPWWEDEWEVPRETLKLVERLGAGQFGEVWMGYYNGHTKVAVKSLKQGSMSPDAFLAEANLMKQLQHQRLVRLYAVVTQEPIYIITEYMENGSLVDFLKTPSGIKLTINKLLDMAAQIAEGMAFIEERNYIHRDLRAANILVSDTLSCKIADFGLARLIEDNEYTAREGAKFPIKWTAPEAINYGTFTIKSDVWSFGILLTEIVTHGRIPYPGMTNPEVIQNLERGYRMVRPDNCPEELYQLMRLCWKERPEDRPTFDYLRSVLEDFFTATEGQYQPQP
Test [19] has as its target Calcium/calmodulin-dependent protein kinase type II subunit alpha (Homo sapiens, UniProt Q9UQM7). Put plainly: Navigating the Kinome. Panel member name: CAMK2A. The format is functional.
Test [20] addresses Protein kinase C gamma type (Homo sapiens, UniProt P05129). The format is functional.
The target in test [21] is Tyrosine-protein kinase JAK2 (Homo sapiens, UniProt O60674). The format is functional.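 Further: JAK2 tested as one member of a kinase panel.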
Test [22] addresses Serine/threonine-protein kinase MRCK alpha (Homo sapiens, UniProt Q5VT25). The format is functional.
Test [23] has as its target Mitogen-activated protein kinase 13 (Homo sapiens, UniProt O15264). The class given is functional.
Test [24] addresses Tyrosine-protein kinase Lyn (Homo sapiens, UniProt P07948). The format is functional.
Test [25] concerns the target Serine/threonine-protein kinase D3 (Homo sapiens, UniProt O94806). The format is functional.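 Further: determined within a kinase panel screen, with PRKCN as the panel member.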
Test [26] addresses 5'-AMP-activated protein kinase catalytic subunit alpha-1 (Homo sapiens, UniProt Q13131). The format is functional.
The target in test [27] is Macrophage-stimulating protein receptor (Homo sapiens, UniProt Q04912). Kind of test: Navigating the Kinome. Panel member name: MST1R. The format is functional.
Test [28] deals with T1, RNA-binding protein pos-1 (Caenorhabditis elegans, UniProt G5EF15).
T1 sequence (G5EF15 whole entry): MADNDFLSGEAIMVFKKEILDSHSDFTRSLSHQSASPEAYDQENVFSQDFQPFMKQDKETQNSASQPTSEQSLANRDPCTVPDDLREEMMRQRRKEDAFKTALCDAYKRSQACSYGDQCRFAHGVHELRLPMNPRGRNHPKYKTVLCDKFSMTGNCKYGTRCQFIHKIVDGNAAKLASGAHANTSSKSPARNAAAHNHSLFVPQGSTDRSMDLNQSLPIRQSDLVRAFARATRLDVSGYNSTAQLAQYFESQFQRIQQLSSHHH
Kind of test: disruptors of C. elegans POS-1 RNA interaction – biochemical, fluorescence polarization, dose response (AID 1964).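 Further: purified POS-1 fused to maltose binding protein made in E. coli; potency of compounds blocking POS-1 binding to fluorescent RNA.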

Active and inactive are the calls of the source. Bounds are passed on as bounds.

Sequence of Tyrosine-protein kinase Fer (P16591 whole entry): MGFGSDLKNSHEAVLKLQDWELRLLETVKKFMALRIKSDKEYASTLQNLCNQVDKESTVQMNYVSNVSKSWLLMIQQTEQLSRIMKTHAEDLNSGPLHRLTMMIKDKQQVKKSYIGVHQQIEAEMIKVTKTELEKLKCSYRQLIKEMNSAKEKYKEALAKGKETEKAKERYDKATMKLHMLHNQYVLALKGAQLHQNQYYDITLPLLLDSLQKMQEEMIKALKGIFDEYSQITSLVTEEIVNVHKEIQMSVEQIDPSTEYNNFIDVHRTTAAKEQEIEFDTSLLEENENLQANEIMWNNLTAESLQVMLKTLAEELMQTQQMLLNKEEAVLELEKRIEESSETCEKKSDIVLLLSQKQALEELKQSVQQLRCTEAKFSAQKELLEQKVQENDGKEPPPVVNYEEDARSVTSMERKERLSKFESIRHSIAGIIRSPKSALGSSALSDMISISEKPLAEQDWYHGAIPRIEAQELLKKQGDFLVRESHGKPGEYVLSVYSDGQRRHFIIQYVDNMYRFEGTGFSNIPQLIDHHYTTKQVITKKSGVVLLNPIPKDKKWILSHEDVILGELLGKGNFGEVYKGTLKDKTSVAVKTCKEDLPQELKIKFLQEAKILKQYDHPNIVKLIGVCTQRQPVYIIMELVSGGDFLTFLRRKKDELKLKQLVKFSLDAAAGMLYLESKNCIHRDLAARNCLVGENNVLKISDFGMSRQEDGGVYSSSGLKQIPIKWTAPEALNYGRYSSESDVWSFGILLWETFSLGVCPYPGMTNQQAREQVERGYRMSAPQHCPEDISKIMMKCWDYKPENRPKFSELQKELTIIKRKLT
Sequence of Serine/threonine-protein kinase D3 (O94806 whole entry): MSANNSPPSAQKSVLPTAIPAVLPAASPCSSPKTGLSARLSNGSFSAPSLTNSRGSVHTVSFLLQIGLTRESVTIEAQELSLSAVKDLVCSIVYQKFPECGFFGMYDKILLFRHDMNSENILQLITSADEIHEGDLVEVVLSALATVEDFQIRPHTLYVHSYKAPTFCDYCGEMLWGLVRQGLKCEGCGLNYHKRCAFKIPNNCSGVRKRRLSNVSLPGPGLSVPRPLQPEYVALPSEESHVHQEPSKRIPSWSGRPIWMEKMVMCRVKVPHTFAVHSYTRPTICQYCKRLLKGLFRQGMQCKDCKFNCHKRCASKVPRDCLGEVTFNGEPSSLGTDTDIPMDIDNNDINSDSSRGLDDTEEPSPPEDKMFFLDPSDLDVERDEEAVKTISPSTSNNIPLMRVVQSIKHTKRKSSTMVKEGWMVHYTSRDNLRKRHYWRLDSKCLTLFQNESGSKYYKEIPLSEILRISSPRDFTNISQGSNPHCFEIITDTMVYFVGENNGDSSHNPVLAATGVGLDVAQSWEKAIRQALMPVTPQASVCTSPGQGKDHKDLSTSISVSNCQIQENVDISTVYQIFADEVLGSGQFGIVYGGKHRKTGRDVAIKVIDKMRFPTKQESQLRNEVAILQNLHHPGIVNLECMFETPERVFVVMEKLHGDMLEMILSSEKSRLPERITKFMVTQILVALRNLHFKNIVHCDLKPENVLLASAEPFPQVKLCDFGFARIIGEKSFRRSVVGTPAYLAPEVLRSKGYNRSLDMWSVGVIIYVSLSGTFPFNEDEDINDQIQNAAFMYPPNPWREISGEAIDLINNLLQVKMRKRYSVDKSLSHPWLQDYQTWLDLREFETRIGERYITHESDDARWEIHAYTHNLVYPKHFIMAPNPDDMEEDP
Sequence of Mitogen-activated protein kinase 13 (O15264 whole entry): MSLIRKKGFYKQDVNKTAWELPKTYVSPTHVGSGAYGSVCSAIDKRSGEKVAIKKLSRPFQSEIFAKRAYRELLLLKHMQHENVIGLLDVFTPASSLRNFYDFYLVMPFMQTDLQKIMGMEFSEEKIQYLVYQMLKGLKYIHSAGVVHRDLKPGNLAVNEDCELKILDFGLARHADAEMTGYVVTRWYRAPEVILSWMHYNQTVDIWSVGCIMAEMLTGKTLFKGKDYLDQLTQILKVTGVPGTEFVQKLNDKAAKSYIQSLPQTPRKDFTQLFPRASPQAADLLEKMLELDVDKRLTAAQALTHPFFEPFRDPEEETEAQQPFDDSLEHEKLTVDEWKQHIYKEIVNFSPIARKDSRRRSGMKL
Sequence of Serine/threonine-protein kinase BRSK1 (Q8TDC3 whole entry): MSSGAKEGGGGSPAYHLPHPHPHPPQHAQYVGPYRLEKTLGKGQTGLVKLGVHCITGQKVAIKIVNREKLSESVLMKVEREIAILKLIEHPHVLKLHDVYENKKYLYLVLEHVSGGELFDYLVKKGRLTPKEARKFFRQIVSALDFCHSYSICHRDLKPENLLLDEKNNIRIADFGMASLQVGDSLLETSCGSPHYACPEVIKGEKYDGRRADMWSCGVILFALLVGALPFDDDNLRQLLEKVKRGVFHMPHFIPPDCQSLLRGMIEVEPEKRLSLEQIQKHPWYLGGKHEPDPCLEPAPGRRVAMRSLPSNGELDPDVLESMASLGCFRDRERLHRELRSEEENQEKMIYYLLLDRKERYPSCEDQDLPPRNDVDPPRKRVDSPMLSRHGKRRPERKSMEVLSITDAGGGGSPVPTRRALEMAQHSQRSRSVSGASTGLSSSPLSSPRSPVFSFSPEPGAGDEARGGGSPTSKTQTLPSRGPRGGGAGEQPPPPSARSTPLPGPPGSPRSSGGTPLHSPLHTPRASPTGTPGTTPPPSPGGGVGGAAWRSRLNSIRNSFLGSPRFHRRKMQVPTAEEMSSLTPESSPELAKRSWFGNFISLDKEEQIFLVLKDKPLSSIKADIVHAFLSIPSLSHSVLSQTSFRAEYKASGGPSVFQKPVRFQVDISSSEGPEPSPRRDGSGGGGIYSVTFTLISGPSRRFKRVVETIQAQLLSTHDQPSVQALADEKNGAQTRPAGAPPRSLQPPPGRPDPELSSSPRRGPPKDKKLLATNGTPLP
Sequence of Casein kinase II subunit alpha (P68400 whole entry): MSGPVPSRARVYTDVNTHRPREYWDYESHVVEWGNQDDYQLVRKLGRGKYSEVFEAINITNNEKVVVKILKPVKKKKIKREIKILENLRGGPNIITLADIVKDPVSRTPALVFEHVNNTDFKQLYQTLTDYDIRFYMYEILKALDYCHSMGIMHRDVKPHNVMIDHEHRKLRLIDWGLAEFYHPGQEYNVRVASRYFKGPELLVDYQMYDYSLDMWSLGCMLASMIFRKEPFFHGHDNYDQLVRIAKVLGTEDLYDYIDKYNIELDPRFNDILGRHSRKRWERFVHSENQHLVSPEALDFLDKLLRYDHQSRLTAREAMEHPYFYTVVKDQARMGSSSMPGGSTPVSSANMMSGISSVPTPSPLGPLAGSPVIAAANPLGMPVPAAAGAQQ
Sequence of Calcium/calmodulin-dependent protein kinase type II subunit alpha (Q9UQM7 whole entry): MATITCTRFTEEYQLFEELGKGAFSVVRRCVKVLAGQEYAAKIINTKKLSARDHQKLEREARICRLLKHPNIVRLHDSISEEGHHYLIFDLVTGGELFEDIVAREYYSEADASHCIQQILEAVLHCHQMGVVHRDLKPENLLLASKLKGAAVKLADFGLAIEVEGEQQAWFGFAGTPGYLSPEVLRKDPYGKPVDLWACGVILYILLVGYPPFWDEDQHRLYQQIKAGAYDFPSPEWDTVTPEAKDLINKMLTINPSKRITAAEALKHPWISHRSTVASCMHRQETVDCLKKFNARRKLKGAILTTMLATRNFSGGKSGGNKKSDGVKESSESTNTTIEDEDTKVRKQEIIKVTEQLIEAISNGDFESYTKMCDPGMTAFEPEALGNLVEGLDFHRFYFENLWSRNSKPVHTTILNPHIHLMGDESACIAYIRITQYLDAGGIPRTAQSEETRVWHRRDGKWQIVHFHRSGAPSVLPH

Take `C=CCNC1=C(Cl)C(=O)c2ccccc2C1=O`: the concentration at half-maximal activity (AC50) (as a rule, the midpoint of the concentration-response curve, whichever way the signal moves) in [1] is 1700 nM (active); in test [2] it was 3820 nM (active); in test [3] it was 9990 nM (active).

Consider `CS(=O)(=O)c1ccc2c(c1)SC1=NC(=O)/C(=C/c3ccc(O)c(O)c3)C(=N)N12`, for which the half-maximal inhibitory concentration (IC50) (usually the concentration that gives 50% inhibition) at Procathepsin L was > 59600 nM (not active); in [4], 159000 nM (active).

`CN(C)c1ccc(-c2nnc(-c3cccs3)o2)cc1`: the IC50 in the test on CHO-K1 is > 66200 nM (inactive).

Regarding `COc1ccc(C(=O)Nc2n[nH]c3ccc(-c4cn(Cc5ccccc5)nn4)cc23)cc1OC`, the Ki (as a rule, a measure of affinity in units of concentration, obtained from inhibition or displacement) at Misshapen-like kinase 1 was 251 nM (active); in test [5], 63.1 nM (active); in [6], 6310 nM (active); in test [7], 1260 nM (active); in test [8], 1260 nM (active); in test [9], 794 nM (active). The Ki in test [10] is 15.8 nM (active); in test [11], 200 nM (active); in test [12], 251 nM (active); on Aurora kinase A, 398 nM (active); in [13], > 1580 nM (inactive); in test [14], 39.8 nM (active). Also, the Ki is 1260 nM (active) in test [15]; 3980 nM (active) in test [16]; > 7940 nM (inactive) in test [17]; 2510 nM (active) in [18]; 398 nM (active) in [19]; 126 nM (active) in [20]. Further, the Ki in test [21] is 126 nM (active); in test [22] it was 6310 nM (active); in test [23], 501 nM (active); in test [24] it was 501 nM (active); in test [25] it was 1580 nM (active); in [26], 63.1 nM (active). The inhibitory constant (Ki) in [27] was 794 nM (active).

For `CCOC(=O)C(C(=O)OCC)c1cc(Br)c2noc3c2c1C(=O)c1ccccc1-3`, the concentration giving a half-maximal response (EC50) (as a rule, the concentration that produces a half-maximal response) in test [28] is 9230 nM (active).

For the origin of these results see ChEMBL document CHEMBL1201862, “PubChem BioAssay data set” (2004).
